# Results from patent US10702506B2, “Small molecule inhibitors of pendrin ion exchange and pharmaceutical compositions” (THE REGENTS OF THE UNIVERSITY OF CALIFORNIA, priority 2016, dated 2020).
# Experiments:
# [1] = biological target: T1, human SLC26A3 (Homo sapiens, UniProt P40879); experiment: SCN− transport YFP quenching assay in SLC26A3-expressing COS7 cells; assay type: cell-based; conditions: 25 μM, 30 min; 70 mM SCN− gradient
# T1 construct: host or cells: COS7 fibroblasts, transient (Lipofectamine 2000), with EYFP-HIF
# T1 sequence (P40879 1-764): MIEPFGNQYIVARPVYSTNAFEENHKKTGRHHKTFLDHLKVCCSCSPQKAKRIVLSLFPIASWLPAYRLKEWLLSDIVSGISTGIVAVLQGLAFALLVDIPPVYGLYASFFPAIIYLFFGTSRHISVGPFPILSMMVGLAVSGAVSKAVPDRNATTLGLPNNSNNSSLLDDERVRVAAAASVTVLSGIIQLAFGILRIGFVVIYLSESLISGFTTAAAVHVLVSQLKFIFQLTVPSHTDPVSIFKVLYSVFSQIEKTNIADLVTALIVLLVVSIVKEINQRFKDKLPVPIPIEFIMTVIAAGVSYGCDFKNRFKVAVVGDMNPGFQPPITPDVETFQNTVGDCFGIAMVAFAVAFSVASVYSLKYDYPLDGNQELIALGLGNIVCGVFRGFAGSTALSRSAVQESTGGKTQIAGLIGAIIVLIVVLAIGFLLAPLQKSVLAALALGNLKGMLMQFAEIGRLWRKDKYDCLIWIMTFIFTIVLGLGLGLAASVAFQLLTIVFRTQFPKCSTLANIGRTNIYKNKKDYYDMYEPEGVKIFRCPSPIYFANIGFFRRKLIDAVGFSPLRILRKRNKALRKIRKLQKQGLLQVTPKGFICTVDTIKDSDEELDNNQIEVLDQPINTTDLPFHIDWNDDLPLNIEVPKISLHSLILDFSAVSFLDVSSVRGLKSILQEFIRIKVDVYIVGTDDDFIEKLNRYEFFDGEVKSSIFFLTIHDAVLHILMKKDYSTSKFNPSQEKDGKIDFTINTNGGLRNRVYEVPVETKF
# Procedure: SLC26A3 activity was measured using a SCN^− transport assay that produced YFP fluorescence quenching (FIG. 4B).
# SLC26A3-mediated ion transport was measured in COS7 fibroblasts transiently transfected to express EYFP-HIF and human SLC26A3 (Origene, Rockville, Md.). COS7 cells were cultured in DMEM-H21 supplemented with 10% FBS, 2 mM glutamine, 100 U/ml penicillin and […] streptomycin and transfected using Lipofectamine 2000 (Invitrogen, Carlsbad, Calif.). SLC26A3-mediated transport was measured from EYFP-HIF fluorescence after addition of a NaSCN-substituted PBS solution to generate a 70 mM SCN^− gradient. Control experiments were done using COS-7 cells expressing EYFP-HIF alone.
# [2] = biological target: T2, murine pendrin (Mus musculus, UniProt Q9R155); experiment: BCECF intracellular pH assay of Cl−/HCO3− exchange in FRT cells expressing murine pendrin; assay type: cell-based
# T2 construct: expressed in transfected cells
# T2 sequence (Q9R155 1-780): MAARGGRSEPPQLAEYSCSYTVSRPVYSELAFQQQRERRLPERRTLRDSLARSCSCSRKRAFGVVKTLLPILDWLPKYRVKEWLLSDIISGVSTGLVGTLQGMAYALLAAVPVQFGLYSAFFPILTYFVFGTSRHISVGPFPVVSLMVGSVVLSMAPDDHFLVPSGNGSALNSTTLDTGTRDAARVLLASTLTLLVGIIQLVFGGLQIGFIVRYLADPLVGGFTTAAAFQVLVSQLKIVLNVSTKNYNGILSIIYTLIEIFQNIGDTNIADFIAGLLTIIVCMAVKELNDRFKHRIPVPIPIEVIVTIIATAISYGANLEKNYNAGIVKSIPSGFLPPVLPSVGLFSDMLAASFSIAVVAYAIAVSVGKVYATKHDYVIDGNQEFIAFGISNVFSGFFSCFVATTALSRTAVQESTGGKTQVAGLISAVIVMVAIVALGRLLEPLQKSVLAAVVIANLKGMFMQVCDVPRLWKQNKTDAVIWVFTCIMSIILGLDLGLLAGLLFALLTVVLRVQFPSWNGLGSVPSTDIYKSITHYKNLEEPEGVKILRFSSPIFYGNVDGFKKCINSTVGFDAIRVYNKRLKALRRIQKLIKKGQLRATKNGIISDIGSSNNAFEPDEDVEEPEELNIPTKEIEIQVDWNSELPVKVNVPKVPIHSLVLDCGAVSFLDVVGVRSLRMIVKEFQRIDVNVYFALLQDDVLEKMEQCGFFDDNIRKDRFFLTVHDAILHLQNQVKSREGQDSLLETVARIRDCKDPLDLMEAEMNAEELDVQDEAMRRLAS
# Procedure: Pendrin-mediated exchange of Cl^− with SCN^−, I^− or NO3^− was measured from the kinetics of YFP fluorescence quenching in a BMG FLUOstar Omega platereader. Pendrin/YFP-expressing FRT cells were washed in PBS and transport measured following a 70-mM gradient of SCN^−, I^− or NO3^−. Pendrin-mediated Cl^−/HCO3^− exchange was measured from the kinetics of cytoplasmic pH (pHi) using BCECF-AM (Invitrogen). Pendrin-expressing FRT cells in HCO3^−-containing buffer (in mM: 120 NaCl, 5 KCl, 1 CaCl2), 1 MgSO4, 10 glucose, 5 Hepes, 25 NaHCO3^−; pH 7.4; 95% O2/5% CO2 equilibrated) were exposed to a Cl^−-free buffer (gluconate replacing Cl^−) to drive Cl^− efflux and HCO3^− influx.
# Pendrin-mediated Cl^−/HCO3^− exchange was measured from the kinetics of intracellular pH, using BCECF fluorescence as a cytoplasmic pH sensor, following extracellular addition of gluconate in HCO3^−/CO2-containing buffer to drive Cl-efflux, HCO3^− influx, and consequent cytoplasmic alkalinization (FIG. 7D). […] YFP-based fluorescence quenching assays in COS-7 cells were established to measure AE1 (Slc4a1), CLD (Slc26a3) and NCC (Slc12a3) activities. […] A YFP-V163S fluorescence quenching assay in FRT cells was used to measure NKCC1 activity in which cells equilibrated gluconate-substituted PBS buffer were exposed to a Cl^−-containing solution containing 75 mM Na^+ and 75 mM K^+.
inhibition of SLC26A3 SCN− transport (YFP quenching) [1],IC50 [2],SMILES
not significantly inhibited,,Cn1nc(COc2cccc(F)c2)c2c1CCN(C(=O)Nc1ccc(Cl)cc1)C2 [PDSinh-A01]
,~1200 nM,Cc1n[nH]c(-c2cc(S(=O)(=O)NC3CCCc4ccccc43)c(C)s2)c1C (centres unmarked) [PDSinh-C01]
